Laboratory results: patent US20230391788A1 (NAVIN SAXENA RESEARCH & TECHNOLOGY PVT. LTD., priority 2020, published 2023)

Key:
[1] = after oral dosing; cited from earlier work
[2] = Storage stability of naltrexone decanoate; assay type: physicochemical; conditions: storage condition of less than 25° C.

Row | Compound | time at which peak plasma levels occur [1] | period over which stable [2] [months]
1 | Oc1ccc2c3c1O[C@H]1[C@H](O)CC[C@@]4(O)[C@@H](C2)N(CC2CC2)CC[C@]314 [6-β-naltrexol] | one | 
2 | O=C1CC[C@@]2(O)[C@H]3Cc4ccc(O)c5c4[C@@]2(CCN3CC2CC2)[C@H]1O5 [naltrexone, Naltrexone, reference compound] | one | 
3 | CCCCCCCCCC(=O)Oc1ccc2c3c1O[C@H]1C(=O)CC[C@@]4(O)[C@@H](C2)N(CC2CC2)CC[C@]314 [naltrexone decanoate, 17-(cyclopropylmethyl)-4,5-epoxy-14-hydroxy-3-[(1-oxodecyl)oxy]-(5α)-morphinan-6-one] |  | ≤ 60
